# Assay results as given in patent US10538555B2, “Macrocyclic inhibitors of the PD-1/PD-L1 and CD80(B7-1)/PD-L1 protein/protein interactions” (BRISTOL-MYERS SQUIBB COMPANY, priority 2014, dated 2020).
# pIC50: −log10 of the molar value. Where a SMILES comes first, the peptide text is derived from it. Bridges are numbered along the chain shown (N, C = ends). [ ]: non-standard residue; d: D form. ξ: configuration not given here. Trp(1-CH2COOH) = N[C@@H](Cc1cn(CC(=O)O)c2ccccc12)C(=O)O; Trp(βS-Me) = C[C@@H](c1c[nH]c2ccccc12)[C@H](N)C(=O)O; Phe(3,4,5-F3) = N[C@@H](Cc1cc(F)c(F)c(F)c1)C(=O)O; Trp(5-Cl) = N[C@@H](Cc1c[nH]c2ccc(Cl)cc12)C(=O)O; d(cisHyp) = O=C(O)[C@H]1C[C@@H](O)CN1; Lys(Me2) = CN(C)CCCC[C@H](N)C(=O)O; Hyp = O=C(O)[C@@H]1C[C@@H](O)CN1; NMeAhp(2) = CCCCC[C@H](NC)C(=O)O; NMeF = CN[C@@H](Cc1ccccc1)C(=O)O; NMeNle = CCCC[C@H](NC)C(=O)O; Pip = O=C(O)[C@@H]1CCCCN1; hSer = N[C@@H](CCO)C(=O)O; NMeA = CN[C@@H](C)C(=O)O; Orn = NCCC[C@H](N)C(=O)O; Dab = NCC[C@H](N)C(=O)O; Dap = NC[C@H](N)C(=O)O; ξC = NC(CS)C(=O)O; Sar = CNCC(=O)O
# Target: T1, Human PD-L1/PD-1 (Homo sapiens, UniProt Q9NZQ7)
# T1 construct: TVMV protease cleavage site (C); made in house; host or cells: HEK293T cells
# Test: HTRF Human PD-L1/PD-1 binding assay (PD-1-Ig/PD-L1-His)
# Conditions: PD-L1-His 10 nM, PD-1-Ig 20 nM; class symbol; read-out: HTRF Human PD-L1/PD-1 Binding Assay IC50 Range
# Outline: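 Compound preincubated 15 min with PD-L1-His (10 nM final), then PD-1-Ig (20 nM final) added for 15 min in dPBS with 0.1% BSA and 0.05% Tween-20. Detection by Eu-cryptate anti-Ig (1 nM) and APC anti-His (20 nM) after 30 min; 665/620 nm HTRF ratio. Proteins expressed in HEK293T.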
# T1 sequence (Q9NZQ7 with tags, fused parts or gaps): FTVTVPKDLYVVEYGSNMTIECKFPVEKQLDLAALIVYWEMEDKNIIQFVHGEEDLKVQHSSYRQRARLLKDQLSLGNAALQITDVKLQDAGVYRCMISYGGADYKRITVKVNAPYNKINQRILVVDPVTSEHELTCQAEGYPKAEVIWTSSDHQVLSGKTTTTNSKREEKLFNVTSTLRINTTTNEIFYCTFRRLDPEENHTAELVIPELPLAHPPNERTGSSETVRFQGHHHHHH
row,Compound,pIC50
1,"CCCC[C@H]1C(=O)N2C[C@H](O)C[C@@H]2C(=O)N[C@@H](CC(=O)O)C(=O)N[C@@H](C(C)C)C(=O)N(C)[C@@H](Cc2ccccc2)C(=O)N[C@@H](CCCN)C(=O)N2CCC[C@@H]2C(=O)N[C@@H](Cc2c[nH]c3ccccc23)C(=O)N[C@@H](Cc2ccc(O)cc2)C(=O)N[C@@H](CCOC)C(=O)N[C@H](C(=O)NCC(N)=O)CSCC(=O)N[C@@H](Cc2cc(F)c(F)c(F)c2)C(=O)N(C)[C@@H](Cc2ccccc2)C(=O)N1C [Example 10191] ({CH2CO}-[Phe(3,4,5-F3)][NMeF][NMeNle][d(cisHyp)]DV[NMeF][Orn][dP]WY[hSer](Me)CG-NH2; thioether N-13)",8.00 to 9.00
2,CCCC[C@H]1C(=O)N(C)[C@@H](CCCC)C(=O)N[C@@H](CCCNC(=N)N)C(=O)N[C@H](C(=O)NCC(N)=O)CSCC(=O)N[C@@H](Cc2ccc(OC)cc2)C(=O)N(C)[C@@H](C)C(=O)N[C@@H](CC(N)=O)C(=O)N2CCC[C@H]2C(=O)N[C@@H](Cc2cnc[nH]2)C(=O)N[C@@H](CCC(=O)O)C(=O)N2C[C@H](O)C[C@H]2C(=O)N[C@@H](Cc2c[nH]c3ccccc23)C(=O)N[C@@H](CO)C(=O)N[C@@H](Cc2c[nH]c3ccccc23)C(=O)N1C [Example 7086] ({CH2CO}-Y(Me)[NMeA]NPHE[Hyp]WSW[NMeNle][NMeNle]RCG-NH2; thioether N-14),8.00 to 9.00
3,CCCC[C@H]1C(=O)N(C)[C@@H](CCCC)C(=O)N[C@@H](CCCCN(C)C)C(=O)N[C@H](C(=O)NCC(N)=O)CSCC(=O)N[C@@H](Cc2ccc(O)cc2)C(=O)N2CCCC[C@H]2C(=O)N[C@@H](CC(=O)O)C(=O)N2CCC[C@H]2C(=O)N[C@@H](CN)C(=O)N[C@@H](CCC(=O)O)C(=O)N2C[C@H](O)C[C@H]2C(=O)N[C@@H](Cc2c[nH]c3ccccc23)C(=O)N[C@@H](CO)C(=O)N[C@@H](Cc2c[nH]c3ccccc23)C(=O)N1C [Example 1306] ({CH2CO}-Y[Pip]DP[Dap]E[Hyp]WSW[NMeNle][NMeNle][Lys(Me2)]CG-NH2; thioether N-14),7.00 to 8.00
4,CCCC[C@H]1C(=O)N(C)[C@@H](CCCC)C(=O)N[C@@H](CCC(=O)O)C(=O)N[C@H](C(=O)NCC(N)=O)CSCC(=O)N[C@@H](Cc2ccc(OC)cc2)C(=O)N(C)[C@@H](C)C(=O)N[C@@H](CC(N)=O)C(=O)N2CCC[C@H]2C(=O)N[C@@H](CN)C(=O)N[C@@H](CCCCN)C(=O)N2C[C@H](O)C[C@H]2C(=O)N[C@@H](Cc2c[nH]c3ccccc23)C(=O)N[C@@H](CCN)C(=O)N[C@@H](Cc2cn(CC(=O)O)c3ccccc23)C(=O)N1C [Example 7146] ({CH2CO}-Y(Me)[NMeA]NP[Dap]K[Hyp]W[Dab][Trp(1-CH2COOH)][NMeNle][NMeNle]ECG-NH2; thioether N-14),7.00 to 8.00
5,"CCCC[C@H]1C(=O)N2C[C@H](O)C[C@@H]2C(=O)N[C@@H](CC(=O)O)C(=O)N[C@@H](C(C)C)C(=O)N(C)[C@@H](Cc2ccccc2)C(=O)N[C@@H](CC(=O)O)C(=O)N2C[C@H](O)C[C@@H]2C(=O)N[C@@H](Cc2c[nH]c3ccccc23)C(=O)N[C@@H](Cc2ccc(O)cc2)C(=O)N[C@@H](CN)C(=O)N[C@H](C(=O)NCC(N)=O)CSCC(=O)N[C@@H](Cc2cc(F)c(F)c(F)c2)C(=O)N(C)[C@@H](Cc2ccccc2)C(=O)N1C [Example 9348] ({CH2CO}-[Phe(3,4,5-F3)][NMeF][NMeNle][d(cisHyp)]DV[NMeF]D[d(cisHyp)]WY[Dap]CG-NH2; thioether N-13)",7.00 to 8.00
6,CCCC[C@H]1C(=O)N(C)[C@@H](CCCC)C(=O)N[C@@H](CCC(=O)O)C(=O)N[C@H](C(=O)NCC(N)=O)CSCC(=O)N[C@@H](Cc2ccc(OC)cc2)C(=O)N(C)[C@@H](C)C(=O)N[C@@H](CCN)C(=O)N2CCC[C@H]2C(=O)N[C@@H](CN)C(=O)N[C@@H](CCCCN)C(=O)N2C[C@H](O)C[C@H]2C(=O)N[C@@H](Cc2c[nH]c3ccccc23)C(=O)N[C@@H](CCN)C(=O)N[C@@H](Cc2c[nH]c3ccccc23)C(=O)N1C [Example 7123] ({CH2CO}-Y(Me)[NMeA][Dab]P[Dap]K[Hyp]W[Dab]W[NMeNle][NMeNle]ECG-NH2; thioether N-14),7.00 to 8.00

# Continued, values first:
row,pIC50,Compound
1,8.00 to 9.00,CCCC[C@H]1C(=O)N(C)[C@@H](CCCC)C(=O)N[C@@H](CCCNC(=N)N)C(=O)NC(C(=O)NCC(N)=O)CSCC(=O)N[C@@H](Cc2ccc(O)cc2)C(=O)N(C)[C@@H](C)C(=O)N[C@@H](CC(N)=O)C(=O)N2CCC[C@H]2C(=O)N[C@@H](CC(N)=O)C(=O)N[C@@H](CC(C)C)C(=O)N2C[C@H](O)C[C@H]2C(=O)N[C@@H](Cc2c[nH]c3ccccc23)C(=O)N[C@@H](CCO)C(=O)N[C@@H](Cc2c[nH]c3ccccc23)C(=O)N1C (stereo partly drawn) [Example 9130] ({CH2CO}-Y[NMeA]NPNL[Hyp]W[hSer]W[NMeNle][NMeNle]R[ξC]G-NH2; thioether N-14)
2,7.00 to 8.00,CCCC[C@H]1C(=O)N(C)[C@@H](CCCC)C(=O)N[C@@H](CCCN)C(=O)N[C@H](C(=O)NCC(N)=O)CSCC(=O)N[C@@H](Cc2ccc(OC)cc2)C(=O)N(C)[C@@H](C)C(=O)N[C@@H](CC(N)=O)C(=O)N2CCC[C@H]2C(=O)N[C@@H](Cc2cnc[nH]2)C(=O)N[C@@H](CCCCN)C(=O)N2C[C@H](O)C[C@H]2C(=O)N[C@@H](Cc2c[nH]c3ccccc23)C(=O)N[C@@H](CC(=O)O)C(=O)N[C@@H](Cc2c[nH]c3ccccc23)C(=O)N1C [Example 7128] ({CH2CO}-Y(Me)[NMeA]NPHK[Hyp]WDW[NMeNle][NMeNle][Orn]CG-NH2; thioether N-14)
3,8.00 to 9.00,CCCC[C@H]1C(=O)N(C)[C@@H](CCCC)C(=O)N[C@@H](CO)C(=O)N[C@H](C(=O)NCC(N)=O)CSCC(=O)N[C@@H](Cc2ccc(OC)cc2)C(=O)N(C)[C@@H](C)C(=O)N[C@@H](CC(N)=O)C(=O)N2CCC[C@H]2C(=O)N[C@@H](CO)C(=O)N[C@@H](CCC(N)=O)C(=O)N2C[C@H](O)C[C@H]2C(=O)N[C@@H](Cc2c[nH]c3ccccc23)C(=O)N[C@@H](CO)C(=O)N[C@@H](Cc2cn(CC(=O)O)c3ccccc23)C(=O)N1C [Example 7144] ({CH2CO}-Y(Me)[NMeA]NPSQ[Hyp]WS[Trp(1-CH2COOH)][NMeNle][NMeNle]SCG-NH2; thioether N-14)
4,7.00 to 8.00,CCCC[C@H]1C(=O)N(C)[C@@H](CCCC)C(=O)N[C@@H](CC(C)C)C(=O)N[C@H](C(=O)NCC(N)=O)CSCC(=O)N[C@@H](Cc2ccc(O)cc2)C(=O)N(C)[C@@H](C)C(=O)N[C@@H](CC(N)=O)C(=O)N2CCC[C@H]2C(=O)NCC(=O)N[C@@H](CCC(N)=O)C(=O)N2C[C@H](O)C[C@H]2C(=O)N[C@@H](Cc2c[nH]c3ccccc23)C(=O)NCC(=O)N[C@@H](Cc2c[nH]c3ccccc23)C(=O)N1C [Example 5183] ({CH2CO}-Y[NMeA]NPGQ[Hyp]WGW[NMeNle][NMeNle]LCG-NH2; thioether N-14)
5,7.00 to 8.00,CCCC[C@H]1C(=O)N(C)[C@@H](CCCC)C(=O)N[C@@H](CCCN)C(=O)N[C@H](C(=O)NCC(N)=O)CSCC(=O)N[C@@H](Cc2ccc(OC)cc2)C(=O)N(C)[C@@H](C)C(=O)N[C@@H](CCN)C(=O)N2CCC[C@H]2C(=O)N[C@@H](CN)C(=O)N[C@@H](CCCCN)C(=O)N2C[C@H](O)C[C@H]2C(=O)N[C@@H](Cc2c[nH]c3ccccc23)C(=O)N[C@@H](CCN)C(=O)N[C@@H](Cc2c[nH]c3ccccc23)C(=O)N1C [Example 7103] ({CH2CO}-Y(Me)[NMeA][Dab]P[Dap]K[Hyp]W[Dab]W[NMeNle][NMeNle][Orn]CG-NH2; thioether N-14)
6,7.00 to 8.00,CCCC[C@H]1C(=O)N(C)CC(=O)N[C@@H](CC(=O)O)C(=O)N[C@@H](C(C)C)C(=O)N(C)[C@@H](Cc2ccccc2)C(=O)N[C@@H](Cc2ccc(O)cc2)C(=O)N(C)CC(=O)N[C@@H](Cc2c[nH]c3ccc(Cl)cc23)C(=O)N[C@@H](Cc2ccc(O)cc2)C(=O)N[C@@H](CC(C)C)C(=O)N[C@H](C(=O)NCC(N)=O)CSCC(=O)N[C@@H](Cc2ccccc2)C(=O)N(C)[C@@H](Cc2ccccc2)C(=O)N1C [Example 3236] ({CH2CO}-F[NMeF][NMeNle][Sar]DV[NMeF]Y[Sar][Trp(5-Cl)]YLCG-NH2; thioether N-13)
7,5.00 to 6.00,CCCC[C@H]1C(=O)N[C@@H](CC(N)=O)C(=O)N2CCC[C@H]2C(=O)N[C@@H](Cc2c[nH]cn2)C(=O)N[C@@H](CCC(=O)O)C(=O)N2C[C@H](O)C[C@H]2C(=O)N[C@@H]([C@@H](C)c2c[nH]c3ccccc23)C(=O)N[C@@H](CCN)C(=O)N[C@@H](Cc2c[nH]c3ccccc23)C(=O)N(C)[C@@H](C)C(=O)N(C)[C@@H](C)C(=O)N[C@@H](CC(C)C)C(=O)N[C@H](C(=O)NCC(N)=O)CSCC(=O)N[C@@H](Cc2ccc(O)cc2)C(=O)N1C [Example 10540] ({CH2CO}-Y[NMeNle]NPHE[Hyp][Trp(βS-Me)][Dab]W[NMeA][NMeA]LCG-NH2; thioether N-14)
8,5.00 to 6.00,CCCC[C@H]1C(=O)N[C@@H](CC(N)=O)C(=O)N2CCC[C@H]2C(=O)N[C@@H](CO)C(=O)N[C@@H](CCO)C(=O)N2CCC[C@H]2C(=O)N[C@@H](Cc2c[nH]c3ccccc23)C(=O)N[C@@H](CO)C(=O)N[C@@H](Cc2c[nH]c3ccccc23)C(=O)N(C)[C@@H](C)C(=O)N(C)[C@@H](C)C(=O)N[C@@H](CCCCN)C(=O)NC(C(=O)NCC(N)=O)CSCC(=O)N[C@@H](Cc2ccc(O)cc2)C(=O)N1C (stereo partly drawn) [Example 10208] ({CH2CO}-Y[NMeNle]NPS[hSer]PWSW[NMeA][NMeA]K[ξC]G-NH2; thioether N-14)

# Same assay, conditions: PD-L1-His 10 nM, PD-1-Ig 20 nM; read-out: HTRF Human PD-L1/PD-1 Binding Assay IC50
row,pIC50,Compound
1,6.75,CCCCC[C@H]1C(=O)N[C@@H](CC(C)C)C(=O)N[C@H](C(=O)NCC(N)=O)CSCC(=O)N[C@@H](Cc2ccc(O)cc2)C(=O)N(C)[C@@H](C)C(=O)N[C@@H](CC(N)=O)C(=O)N2CCC[C@H]2C(=O)N[C@@H](Cc2cnc[nH]2)C(=O)N[C@@H](CCC(N)=O)C(=O)N2C[C@H](O)C[C@H]2C(=O)N[C@@H](Cc2c[nH]c3ccccc23)C(=O)N[C@@H](CCN)C(=O)N[C@@H](Cc2cn(CC(=O)O)c3ccccc23)C(=O)N(C)[C@@H](CCCC)C(=O)N1C [Example 6415] ({CH2CO}-Y[NMeA]NPHQ[Hyp]W[Dab][Trp(1-CH2COOH)][NMeNle][NMeAhp(2)]LCG-NH2; thioether N-14)
